target: T1, MIF (Homo sapiens, UniProt P14174); experiment: MIF tautomerase assay using pHPP as substrate; type: biochemical; details: inhibition of the MIF enzyme in vitro; mean of multiple test results; read-out: Tautomerase Inhibition pIC50 (converted)
T1 sequence (P14174 2-115 limits assumed): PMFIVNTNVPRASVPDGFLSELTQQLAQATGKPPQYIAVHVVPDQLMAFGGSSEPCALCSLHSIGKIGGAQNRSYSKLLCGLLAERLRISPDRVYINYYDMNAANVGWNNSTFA
In short: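 Cell-free keto-to-enol tautomerization of pHPP, enol product detected spectrophotometrically as borate complex. Final 3 nM MIF and 1.5 mM ketonic pHPP in DPBS/boric acid buffer with 0.025% BSA and 300 μM CHAPS, pH 6.0, room temperature; initial rates from absorbance slopes give mean pIC50.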

IC50 | SMILES
1000 to 9770 nM | O=C1c2ccccc2C(=O)N1CCn1cnc2c(-n3ncc4ccccc43)nc(N3CCN(c4ccc(O)cc4)CC3)nc21 [Example 136, 2-(2-(2-(4-(4-hydroxyphenyl)piperazin-1-yl)-6-(1H-indazol-1-yl)-9H-purin-9-yl)ethyl)isoindoline-1,3-dione]
> 10000 nM | O=C(O)Cn1cnc2c(N3Cc4ccccc4C3=O)nc(N3Cc4ccccc4C3=O)nc21 [Example 27, 2-(2,6-bis(1-oxoisoindolin-2-yl)-9H-purin-9-yl)acetic acid]
10 to 97.7 nM | Cc1nc(N2CCC(O)(c3ccc(O)cc3)CC2)nc2c1ncn2-c1cccnc1 [Example 204, 4-(4-hydroxyphenyl)-1-(6-methyl-9-(pyridin-3-yl)-9H-purin-2-yl)piperidin-4-ol]
> 10000 nM | Nc1nc(N2CCN(c3ccc(CCO)cc3)CC2)nc2c1ncn2-c1ccncc1 [Example 191, 2-(4-(4-(6-amino-9-(pyridin-4-yl)-9H-purin-2-yl)piperazin-1-yl)phenyl)ethan-1-ol]
10 to 97.7 nM | O=C(O)CCCn1cnc2c(-n3ncc4ccccc43)nc(N3CCN(c4ccc(O)cc4)CC3)nc21 [Example 146, 4-(2-(4-(4-hydroxyphenyl)piperazin-1-yl)-6-(1H-indazol-1-yl)-9H-purin-9-yl)butanoic acid]
> 10000 nM | Cc1nc(N2CCC(O)(c3ccc(O)cc3)CC2)nc2c1ncn2CCCCC(=O)O [Example 160, 5-(2-(4-hydroxy-4-(4-hydroxyphenyl)piperidin-1-yl)-6-methyl-9H-purin-9-yl)pentanoic acid]
1000 to 9770 nM | O=C(O)Cn1cnc2c(-n3ncc4ccc(C(=O)O)cc43)nc(N3CCN(c4ccc(O)cc4)CC3)nc21 [Example 104, 1-(9-(carboxymethyl)-2-(4-(4-hydroxyphenyl)piperazin-1-yl)-9H-purin-6-yl)-1H-indazole-6-carboxylic acid]
100 to 977 nM | Cc1nc(N2CCC(O)(c3cccc(O)c3)CC2)nc2c1ncn2-c1ccncc1 [Example 206, 4-(3-hydroxyphenyl)-1-(6-methyl-9-(pyridin-4-yl)-9H-purin-2-yl)piperidin-4-ol]
10 to 97.7 nM | CN1CCN(c2nc(N3CCN(c4ccc(O)cc4)CC3)nc3c2ncn3-c2ccncc2)CC1=O [Example 175, 4-(2-(4-(4-hydroxyphenyl)piperazin-1-yl)-9-(pyridin-4-yl)-9H-purin-6-yl)-1-methylpiperazin-2-one]
> 10000 nM | O=C(O)Cn1cnc2c(-n3ncc4ccccc43)nc(N3CCN(c4ccc(O)nc4)CC3)nc21 [Example 129, 2-(2-(4-(6-hydroxypyridin-3-yl)piperazin-1-yl)-6-(1H-indazol-1-yl)-9H-purin-9-yl)acetic acid]
1000 to 9770 nM | Cn1cc(-n2cnc3c(N)nc(N4CCN(c5ccc(O)cc5)CC4)nc32)cn1 [Example 88, 4-(4-(6-amino-9-(1-methyl-1H-pyrazol-4-yl)-9H-purin-2-yl)piperazin-1-yl)phenol]
1000 to 9770 nM | Nc1nc(N2CCN(c3ccc(O)cn3)CC2)nc2c1ccn2-c1ccncc1 [Example 230, 6-(4-(4-amino-7-(pyridin-4-yl)-7H-pyrrolo[2,3-d]pyrimidin-2-yl)piperazin-1-yl)pyridin-3-ol]
10 to 97.7 nM | CCOC(=O)c1nn(-c2nc(N3CCN(c4ccc(O)cc4)CC3)nc3c2ncn3CC(=O)O)c2ccccc12 [Example 33, 2-(6-(3-(ethoxycarbonyl)-1H-indazol-1-yl)-2-(4-(4-hydroxyphenyl)piperazin-1-yl)-9H-purin-9-yl)acetic acid]
100 to 977 nM | Oc1ccc(N2CCN(c3nc(-n4ncc5ccccc54)c4ncn(CCc5nnn[nH]5)c4n3)CC2)cc1 [Example 117, 4-(4-(9-(2-(1H-tetrazol-5-yl)ethyl)-6-(1H-indazol-1-yl)-9H-purin-2-yl)piperazin-1-yl)phenol]
100 to 977 nM | COc1cc(-n2cnc3c(N)nc(N4CCN(c5ccc(O)cc5)CC4)nc32)ccn1 [Example 82, 4-(4-(6-amino-9-(2-methoxypyridin-4-yl)-9H-purin-2-yl)piperazin-1-yl)phenol]
